pIC50: −log10 of the molar value. Values joined by “and” are separate entries in the source; they are usually repeats but may differ in a detail not shown here. Identical values can stand only once. “Also recorded” adds a separate entry of the source. Starred links: 1 amine or outer side, 2 acyl side, 3 side chain; linkers in the order of their positions; H or OH if unused. Positions of bridges follow the written chain, without caps; N, C: chain ends. Non-standard residues stand in square brackets, D forms with d. Residues, ends and D or L forms follow the SMILES beside them. *: point of attachment. hTyr(3S-OH,4S-OH,3'-OSO3H) = N[C@H](C(=O)O)[C@H](O)[C@@H](O)c1ccc(O)c(OS(=O)(=O)O)c1; pTerphenylCO(4''-OnC5H11) = CCCCCOc1ccc(-c2ccc(-c3ccc(C(=O)*)cc3)cc2)cc1; Orn(4R-OH,5R-OH) = O=C([C@H](C[C@@H](O)[C@@H](O)N[*:3])N[*:1])[*:2]; hTyr(3S-OH,4S-OH) = N[C@H](C(=O)O)[C@H](O)[C@@H](O)c1ccc(O)cc1; Pro(3S-OH,4S-Me) = C[C@H]1CN[C@H](C(=O)O)[C@H]1O; X1 = CCCCCOc1ccc(-c2cc(-c3ccc(C(=O)*)cc3)no2)cc1; Gln(3R-OH) = NC(=O)C[C@@H](O)[C@H](N)C(=O)O; Hyp = O=C(O)[C@@H]1C[C@@H](O)CN1
What was measured:
[1] = tested on: ZIKV; experiment: microbe, parasite or virus in culture; assay type: cell-based, Zika virus
[2] = tested on: CCHFV; experiment: microbe, parasite or virus in culture; assay type: cell-based, Crimean-Congo hemorrhagic fever virus
[3] = tested on: SFTSV; assay type: cell-based, severe fever with thrombocytopenia syndrome virus
[4] = tested on: SFTSV; assay type: cell-based, severe fever with thrombocytopenia syndrome virus; remark: listed apart in the source
[5] = tested on: DENV; conditions: inhibition of DENV infection; cited from earlier work
[6] = tested on: HRTV; experiment: microbe, parasite or virus in culture; assay type: cell-based, Heartland virus
[7] = tested on: SFTSV; experiment: microbe, parasite or virus in culture; assay type: cell-based, severe fever with thrombocytopenia syndrome virus; conditions: for pIC50 / IC90: Severe fever with thrombocytopenia syndrome virus, Vero, 24 h
[8] = tested on: SFTSV; assay type: cell-based, severe fever with thrombocytopenia syndrome virus; conditions: pH 5
[9] = tested on: HSV-1; experiment: microbe, parasite or virus in culture; assay type: cell-based, herpes simplex virus 1
[10] = tested on: GTV; experiment: microbe, parasite or virus in culture; assay type: cell-based, Guertu virus
[11] = tested on: SFTSV; assay type: cell-based, severe fever with thrombocytopenia syndrome virus; remark: listed apart in the source
[12] = tested on: SFTSV; assay type: cell-based, severe fever with thrombocytopenia syndrome virus; remark: listed apart in the source
[13] = tested on: SARS-CoV-2; experiment: microbe, parasite or virus in culture; assay type: cell-based, severe acute respiratory syndrome coronavirus 2
[14] = tested on: SFTSV; design: species or system A129 mice; conditions: mouse, in vivo
[15] = in vitro; conditions: African green monkey
[16] = tested on: SFTSV; experiment: microbe, parasite or virus in culture; assay type: cell-based, severe fever with thrombocytopenia syndrome virus
[17] = Orthonairovirus haemorrhagiae, Vero
[18] = Severe acute respiratory syndrome coronavirus 2, Vero

For `CCCCCOc1ccc(-c2ccc(-c3ccc(C(=O)N[C@H]4C[C@@H](O)[C@@H](O)NC(=O)[C@@H]5[C@@H](O)[C@@H](C)CN5C(=O)[C@H]([C@@H](C)O)NC(=O)[C@H]([C@H](O)[C@@H](O)c5ccc(O)cc5)NC(=O)[C@@H]5C[C@@H](O)CN5C(=O)[C@H]([C@@H](C)O)NC4=O)cc3)cc2)cc1` [Anidulafungin, anidulafungin] ({pTerphenylCO(4''-OnC5H11)}-[Orn(4R-OH,5R-OH)]T[Hyp][hTyr(3S-OH,4S-OH)]T[Pro(3S-OH,4S-Me)]; lactam 1-C), the SI [1] was 9.54, the pIC50 ([1]; Zika virus, Vero) was 5.36 and the IC90 ([1]; Zika virus, Vero) was 6.44 µM. For the same compound, the SI [2] was 3.86, the pIC50 [2, 17] was 4.97 and the IC90 [2, 17] was 24.2 µM. The “suppression of the entry of SFTSV strain HBMC5” value [3] was “as efficiently as the strain WCH”, the “number of intracellular viral RNA copies (virus internalization)” value [4] was “significantly decreased” and the pIC50 [5] was 5.49. It also gave an SI [6] of 8.35, a pIC50 ([6]; Heartland virus, Vero) of 5.30 and an IC90 ([6]; Heartland virus, Vero) of 9.29 µM. The SI [7] was 13.80, the pIC50 [7] was 5.52 and the IC90 [7] was 12.4 µM. The “number and size of syncytia (fusion ability)” value [8] was “decreased”, the SI [9] was 6.12 and the pIC50 ([9]; Human alphaherpesvirus 1, Vero) was 5.17. The IC90 ([9]; Human alphaherpesvirus 1, Vero) was 9.12 µM, the SI [10] was 7.53 and the pIC50 ([10]; Guertu virus, Vero) was 5.26. For the same compound, the IC90 ([10]; Guertu virus, Vero) was 9.62 µM, the “reduction of intracellular viral RNA copies relative to the control” value [11] was “over 10 times” and the “efficacy of virus binding to cells versus vehicle” value [12] was “did not have a significant difference”. It also gave an SI [13] of 7.59, a pIC50 [13, 18] of 5.26 and an IC90 [13, 18] of 8.55 µM. The “PLT (median, IQR)” value [14] was 1054.5 (993.25, 1094) ×10^9/L and 950 (494.5, 1062.75) ×10^9/L and 1141 (1050, 1191) ×10^9/L, the “WBC (median, IQR)” value [14] was 4.75 (4.35, 5.465) ×10^9/L and 4.72 (4.31, 6.195) ×10^9/L and 5.76 (5.28, 6.04) ×10^9/L and the body weight [14] was “maintained; also recorded: slight decrease”. For the same compound, the “clinical signs of illness onset” value [14] was “did not show typical clinical signs of illness onset”, the “histopathological damage in the lung, H&E” value [14] was “significantly ameliorated” and the “kidney lesions (renal tubulointerstitial hemorrhaging, edemas), H&E” value [14] was “slight”. The “liver lesion (ballooning degeneration of hepatocytes), H&E” value [14] was “significantly attenuated”, the survival rate [14] was 66.7% and 50.0% and the CC50 [15] was 41.7 µM.
In the case of `O=C1C(O)=C([C@H]2CC[C@H](c3ccc(Cl)cc3)CC2)C(=O)c2ccccc21` [Atovaqone, Atovaquone], the SI [7] was over 10, the pIC50 [7] was 5.30 and the IC90 [7] was 10.1 µM. It also gave a CC50 [15] of over 100 µM.
In the case of `CN(C)CCCN1c2ccccc2Sc2ccc(Cl)cc21` [CPZ, chlorpromazine], the inhibition at 35 µM ([16]; Severe fever with thrombocytopenia syndrome virus, Vero, read-out: mean inhibition rate of SFTSV infection) was 46.1%.
For `Oc1ccc2ccccc2c1SSc1c(O)ccc2ccccc12` [IPA3, p21-activated kinase inhibitor III], the “mean inhibition rate of SFTSV infection” value [16] was 43.22%.
For `CCCCCOc1ccc(-c2cc(-c3ccc(C(=O)N[C@H]4C[C@@H](O)[C@@H](O)NC(=O)[C@@H]5[C@@H](O)[C@@H](C)CN5C(=O)[C@H]([C@H](O)CC(N)=O)NC(=O)[C@H]([C@H](O)[C@@H](O)c5ccc(O)c(OS(=O)(=O)O)c5)NC(=O)[C@@H]5C[C@@H](O)CN5C(=O)[C@H]([C@@H](C)O)NC4=O)cc3)no2)cc1` [Micafungin, micafungin] (X1-[Orn(4R-OH,5R-OH)]T[Hyp][hTyr(3S-OH,4S-OH,3'-OSO3H)][Gln(3R-OH)][Pro(3S-OH,4S-Me)]; lactam 1-C), the “inhibitory effect on SFTSV infection during the entry process” value [3] is listed as “less effective than that exerted by anidulafungin” and the pIC50 [5] is listed as 4.99.
For `COc1c(C)c2c(c(O)c1C/C=C(\C)CCC(=O)OCCN1CCOCC1)C(=O)OC2` [Mycophenolate mofetil], the SI [7] was over 10, the pIC50 [7] was 6.24 and the IC90 [7] was 1.52 µM. It also gave a CC50 [15] of over 100 µM.
`COc1c(C)c2c(c(O)c1C/C=C(\C)CCC(=O)O)C(=O)OC2` [Mycophenolic acid] showed an SI [7] of over 10, a pIC50 [7] of 6.33 and an IC90 [7] of 4.75 µM. It also gave a CC50 [15] of over 100 µM.
Work on `CC(=O)Oc1ccccc1C(=O)Nc1ncc([N+](=O)[O-])s1` [Nitazoxanide] yielded a pIC50 [7] of 4.95, an IC90 [7] of 25.3 µM and a CC50 [15] of over 100 µM.
With `COc1cccc(-c2ccc(NC(=O)C3=C(C(=O)O)CCC3)c(F)c2)c1` [Vidofludimus] the SI [7] was over 10, the pIC50 [7] was 5.22 and the IC90 [7] was 14.6 µM. For the same compound, the CC50 [15] was over 100 µM.
In the case of `CC[C@H](C)C[C@H](C)CCCCCCCCC(=O)N[C@H]1C[C@@H](O)[C@@H](NCCN)NC(=O)[C@@H]2[C@@H](O)CCN2C(=O)[C@H]([C@H](O)CCN)NC(=O)[C@H]([C@H](O)[C@@H](O)c2ccc(O)cc2)NC(=O)[C@@H]2C[C@@H](O)CN2C(=O)[C@H]([C@@H](C)O)NC1=O` [caspofungin], the “inhibitory effect on SFTSV infection during the entry process” value [3] is given as “limited effect” and the pIC50 [5] is given as 4.68.
In the case of `C[C@@H]1[C@H](O)[C@@H](C)/C=C/C=C/CC/C=C/C=C/C=C/C=C/C(O[C@H]2O[C@H](C)[C@@H](O)[C@H](N)[C@@H]2O)CC2O[C@](O)(CC(O)C(O)CCC(O)CC(O)CC(O)CC(=O)O[C@H]1C)CC(O)C2C(=O)O` (some centres unmarked) [nystatin], the “mean inhibition rate of SFTSV infection” value [16] was 8.67%.
